Entries after “also recorded” stand apart in the source; their conditions may differ.
Columns and labels:
[1] = system: di-22:6-BMP; settings: monkeys; Fuji 2015, Baptista 2020; cited from earlier work
[2] = Phase 1 first-in-human study, safety and tolerability, multiple-dose cohorts (Parts B, D, E); assay type: in vivo
Method: This double-blind, placebo-controlled Phase 1 study comprised single-ascending dose (SAD) and 10-day, 14-day, and 28-day multiple-ascending dose (MAD) parts in healthy volunteers. BID=twice daily; PBO=placebo; QD=once daily.
In a separate analysis of ≥1 TEAE in ≥2 subjects per treatment arm included the following additional TEAEs not listed above: ear pain (n=2; 105 mg QD 10-day cohort); nasopharyngitis (n=2; 225 mg QD 28-day cohort); asymptomatic COVID-19 (n=2; 400 mg BID 14-day cohort); somnolence (n=2; 250 mg BID 14-day cohort). 2 subjects also experienced presyncope associated with lumbar puncture (one each for 150 and 225 mg QD 28-day cohort).
In the Phase 1 study in healthy volunteers, the demographics of participants was as follows: • 184 HVs (145 active, 39 placebo) were treated with single or multiple once daily (QD) or twice daily (BID) doses up to 28 days in the following study Parts: • Part A (SAD; young HVs; n=48): 100% male and median age of 25 (range, 18-50) years; • Part B (10-day MAD; young HVs; n=80): 99% male and median age of 26.5 (range, 18-50) years; • Part C (SAD: elderly HVs; n=8): 50% male and median age of 69 (range, 67-74) years; • Part D (28-day MAD; young HVs; n=17): 100% male and median age of 29 (range, 18-39) years; and • E (14-day MAD: young HVs: n=31): 100% male and median age 30 (range 18-50) years.
This was a Phase 1, randomized, placebo-controlled, double-blind FIH study designed to determine the safety, tolerability. PK, and pharmacodynamics of compound I in healthy subjects.
Part B of this study was composed of sequential multiple ascending dose (MAD) cohorts. Healthy subjects were enrolled in 8 cohorts (Cohorts B1-B8; n=10/cohort) and were administered compound I 15, 30, 45, 70, 105, 150, 225, or 300 mg or placebo (4:1 ratio) QD for 10 days.
Part D was composed of a multiple-dose cohort (Cohort D1) of healthy subjects administered either compound I 225 mg (n=13) or placebo (n=4) QD for 28 days.
Part E is composed of sequential MAD cohorts. Healthy subjects in Cohort E1 were administered compound I 150 mg or placebo BID (4:1 ratio) for 14 days (n=9) and subjects in Cohort E2 were administered compound I 250 mg or placebo BID (4:1 ratio) for 14 days (n=11). Subjects in the ongoing Cohort E3 are being administered […] or placebo BID (4:1 ratio) for 14 days.

[3] = Phase 1b study in subjects with Parkinson's disease, safety and tolerability; assay type: in vivo, human
Description: This study was a double-blind, placebo-controlled, parallel-design Phase 1b study with 28-day dosing, administered once daily in Parkinson's disease patients.
GERD, gastroesophageal reflux disease: TEAE, treatment-emergent adverse event. ^aProcedural related includes (in order of frequency): procedural pain, post procedural contusion, post procedural hematoma, and procedural headache; ^bHypotension and orthostatic hypotension occurred in the same two patients.
A total of 36 patients with PD (26 active, 10 placebo) were treated with up to 300 mg QD for 28 days (FIG. 8).
This was a Phase 1b, randomized, placebo-controlled, double-blind study designed to determine the safety, tolerability, PK, and pharmacodynamics of compound I in subjects with PD. The conduct of this study has been completed and the clinical study report is in progress. In Part 1, subjects were administered compound I 80 mg or placebo QD (1:1 ratio) for 28 days (n=8). In Part 2, subjects were administered compound I 80 or 130 mg or placebo QD (1:2:1 ratio) for 28 days (n=17). In Part 3, subjects were administered compound I 300 mg or placebo QD (4:1 ratio) for 28 days (n=11).

[4] = Clinical safety across the Phase 1 and Phase 1b studies (conclusions); assay type: in vivo, human
Description: Based on the 2-fold increase in kinase activity associated with LRRK2 G2019S point mutations, reduction of whole-blood pS935 LRRK2 of ≥50% at trough in ≥50% of the study subjects represents a minimal pharmacodynamic target.
Safety data from Phase 1 first in human study in healthy subjects and Phase 1b study in subjects with PD are summarized below.
The most common TEAE in compound I-treated participants was headache.

[5] = target: T1, pS935 LRRK2 (Homo sapiens, UniProt Q5S007); assay: pS935 LRRK2 in whole blood, MSD immunoassay (target engagement, Phase 1/1b); assay type: in vivo; settings: for reduction in pS935 compared with baseline: Phase 1 healthy volunteers
T1 construct: from tissue; host or cells: human whole blood from clinical study subjects (healthy subjects, and subjects with PD in Phase 1b)
Method: Frozen human whole blood samples were thawed and directly lysed in 96-well plates (100 μl whole blood sample with 100 μl lysis buffer). Samples were spun down (2,500×g for 20 minutes at 4° C.) before MSD assay.
(§1) Capture antibodies were biotinylated using EZ-Link™ NHS-LC-LC-Biotin (Thermo Fisher, #21343), and detection antibodies were conjugated using Sulfo-TAG NHS-Ester (MSD, R31AA-1). 96-well (or 384-well) MSD GOLD Small Spot Streptavidin plates (MSD L45SSA-1) were coated with 25 μl (or 15 μl for 384 well plates) of capture antibody diluted in Diluent 100 (MSD, R50AA-2) for 1 hour at room temperature with 700 rpm shaking (1000 rpm for 384-well). After TBST wash (3×), 25 μl samples were added each well (10 μl for 384-well) and incubated at 4° C. overnight with agitation at 700 rpm. After TBST wash (3×), 25 μl of detection antibodies (15 μl for 384-well) were added each well diluted in TBST containing 25% MSD blocker A (MSD R93AA-1), together with rabbit (Rockland Antibodies D610-1000) and mouse gamma globin fraction (D609-0100). After 1 hour incubation at room temperature at 700 rpm, followed by TBST washes (3×), 150 μl MSD read buffer (MSD R92TC. 1:1 diluted with water) is added (35 μl for 384-well), and plates are read on the MSD Sector S 600.

[6] = system: pT73 Rab10; assay: pRab10 in PBMCs, MSD immunoassay (pathway engagement, Phase 1/1b); assay type: in vivo, human
Method: Blood was collected into CPT-sodium heparin tubes (BD BDAM362780) and PBMCs were then isolated following the manufacturer's protocol. The PBMCs were pelleted by centrifugation at maximum speed and then resuspended in PBMC lysis buffer (1× cell lysis buffer [CST catalog #9803] with PhosSTOP phosphatase inhibitor [Roche 04906837001], complete protease inhibitor [Roche 04693159001], and Benzonase [Sigma E8263]). The lysates were held on ice for 20 minutes, followed by centrifugation at maximum speed at 4° C. for 20 minutes. Supernatants were aliquoted and stored at −80° C. for later immunoassay analysis.
as §1

[7] = system: BMP(22:6/22:6); assay: Urine BMP(22:6/22:6) (lysosomal engagement, Phase 1/1b); assay type: in vivo, human; settings: HVs and patients with PD
Description: BMP concentrations were normalized to creatinine concentrations (ng/mg).
Lysosomal lipid BMP 22:6/22:6 (referred to throughout the document as “BMP”) measured in urine represents a mechanistic marker of correction of the lysosomal pathways downstream of LRRK2. BMP is a lysosomal phospholipid found exclusively on the intraluminal vesicles of late endosomes and lysosomes (Bissig and Gruenberg, Cold Spring Harb Perspect Biol. 2013; 5(10):a016816). Individuals with genetic or drug-induced lysosomal function disorders, including those with G2019S LRRK2 mutations, have increased levels of urine BMP (Lecommandeur et al., J Lipid Res. 2017:58(7): 1306-14; Alcalay et al., Mov Disord. 2013; 28(14):1966-71).

[8] = CSF penetration, CSF/unbound plasma ratio (Phase 1/1b); assay type: in vivo, human
[9] = Phase 1 first-in-human study, safety and tolerability, multiple-dose cohorts (Parts B, D, E); assay type: in vivo; settings: Part E, healthy subjects; procedural headache (250 mg BID), headache and malaise (40 mg BID)
[10] = Part B, healthy subjects, 15-300 mg QD for 10 days
[11] = Part D, healthy subjects, 225 mg QD for 28 days
[12] = Part E, healthy subjects, BID for 14 days
[13] = subjects with PD, 80, 130 or 300 mg QD for 28 days
[14] = subjects with PD, 80-300 mg QD for 28 days

T1 sequence (Q5S007 whole entry): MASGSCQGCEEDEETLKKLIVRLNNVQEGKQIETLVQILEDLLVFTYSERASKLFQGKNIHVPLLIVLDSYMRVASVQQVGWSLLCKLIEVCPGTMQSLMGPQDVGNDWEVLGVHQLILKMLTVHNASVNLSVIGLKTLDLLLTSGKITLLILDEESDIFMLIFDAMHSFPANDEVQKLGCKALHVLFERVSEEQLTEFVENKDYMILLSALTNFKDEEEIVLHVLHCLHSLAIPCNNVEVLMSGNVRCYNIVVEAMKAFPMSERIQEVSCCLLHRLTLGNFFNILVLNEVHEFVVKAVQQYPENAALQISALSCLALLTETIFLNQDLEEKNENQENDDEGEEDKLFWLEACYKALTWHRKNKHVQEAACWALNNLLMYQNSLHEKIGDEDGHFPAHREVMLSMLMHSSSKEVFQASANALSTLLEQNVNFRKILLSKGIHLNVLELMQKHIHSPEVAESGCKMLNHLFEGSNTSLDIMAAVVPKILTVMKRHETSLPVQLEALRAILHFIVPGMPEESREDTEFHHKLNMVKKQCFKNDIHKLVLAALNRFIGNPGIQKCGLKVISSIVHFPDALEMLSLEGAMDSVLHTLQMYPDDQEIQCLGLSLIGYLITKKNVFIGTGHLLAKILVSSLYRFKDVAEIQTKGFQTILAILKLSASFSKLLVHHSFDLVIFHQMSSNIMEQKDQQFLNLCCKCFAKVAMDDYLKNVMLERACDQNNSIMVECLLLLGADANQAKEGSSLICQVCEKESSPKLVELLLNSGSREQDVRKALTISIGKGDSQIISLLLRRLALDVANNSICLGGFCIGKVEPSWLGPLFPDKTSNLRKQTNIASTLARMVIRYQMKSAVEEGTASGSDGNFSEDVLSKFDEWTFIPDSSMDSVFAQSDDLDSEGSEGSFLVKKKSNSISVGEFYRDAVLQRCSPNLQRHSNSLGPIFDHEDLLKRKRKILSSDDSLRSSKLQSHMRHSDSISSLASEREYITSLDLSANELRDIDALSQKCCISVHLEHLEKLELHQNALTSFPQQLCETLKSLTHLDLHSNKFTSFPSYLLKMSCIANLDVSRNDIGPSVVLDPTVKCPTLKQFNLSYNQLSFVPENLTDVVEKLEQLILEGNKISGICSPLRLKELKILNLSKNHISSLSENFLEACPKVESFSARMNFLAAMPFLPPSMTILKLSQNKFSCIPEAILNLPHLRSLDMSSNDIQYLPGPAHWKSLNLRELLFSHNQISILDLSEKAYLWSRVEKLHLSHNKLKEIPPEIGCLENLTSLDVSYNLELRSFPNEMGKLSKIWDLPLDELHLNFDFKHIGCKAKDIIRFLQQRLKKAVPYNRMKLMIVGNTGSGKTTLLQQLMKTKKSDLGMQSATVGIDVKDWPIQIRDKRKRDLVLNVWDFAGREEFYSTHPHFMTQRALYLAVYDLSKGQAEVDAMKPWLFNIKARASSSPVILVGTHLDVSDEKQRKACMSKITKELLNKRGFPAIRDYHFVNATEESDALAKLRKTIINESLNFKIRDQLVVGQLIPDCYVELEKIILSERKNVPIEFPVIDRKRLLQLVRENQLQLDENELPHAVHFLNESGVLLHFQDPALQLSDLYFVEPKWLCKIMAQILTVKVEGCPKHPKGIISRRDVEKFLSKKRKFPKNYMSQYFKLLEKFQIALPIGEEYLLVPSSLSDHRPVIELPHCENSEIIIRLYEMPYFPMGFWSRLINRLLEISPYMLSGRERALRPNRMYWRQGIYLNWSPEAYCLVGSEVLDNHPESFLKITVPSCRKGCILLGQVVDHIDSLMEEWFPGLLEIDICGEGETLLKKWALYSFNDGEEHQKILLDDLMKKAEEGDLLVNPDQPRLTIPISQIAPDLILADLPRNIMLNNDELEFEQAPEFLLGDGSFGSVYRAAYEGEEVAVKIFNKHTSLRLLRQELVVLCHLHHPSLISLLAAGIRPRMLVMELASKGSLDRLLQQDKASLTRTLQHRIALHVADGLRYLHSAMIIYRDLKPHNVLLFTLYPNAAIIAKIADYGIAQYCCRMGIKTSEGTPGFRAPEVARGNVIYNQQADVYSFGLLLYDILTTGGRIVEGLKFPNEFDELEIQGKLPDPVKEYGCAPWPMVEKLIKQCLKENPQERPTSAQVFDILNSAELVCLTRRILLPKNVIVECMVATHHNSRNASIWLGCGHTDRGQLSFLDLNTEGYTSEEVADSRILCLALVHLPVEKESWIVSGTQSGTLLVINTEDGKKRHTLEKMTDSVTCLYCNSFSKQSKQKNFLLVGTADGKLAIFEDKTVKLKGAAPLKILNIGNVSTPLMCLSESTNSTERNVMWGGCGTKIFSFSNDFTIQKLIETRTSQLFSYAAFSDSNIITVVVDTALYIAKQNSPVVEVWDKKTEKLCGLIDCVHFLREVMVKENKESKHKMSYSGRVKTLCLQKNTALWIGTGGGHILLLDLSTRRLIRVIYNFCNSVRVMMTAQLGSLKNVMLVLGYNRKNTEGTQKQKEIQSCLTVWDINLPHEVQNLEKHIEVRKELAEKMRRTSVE

## CNc1nc(Nc2cn(C(C)(C)C#N)nc2C)ncc1C(F)(F)F [GNE-0877]
[1]
  urine di-22:6-BMP: decreased

## CCNc1nc(Nc2cc(F)c(C(=O)N3CCOCC3)cc2OC)ncc1C(F)(F)F [GNE-7915]
[1]
  urine di-22:6-BMP: decreased

## CCNc1nc(Nc2cc(C(C)(C)n3nccn3)nn2C2CC2)ncc1C(F)(F)F [compound I, N2-(3-(2-(2H-1,2,3-triazol-2-yl)propan-2-yl)-1-cyclopropyl-1H-pyrazol-5-yl)-N4-ethyl-5-(trifluoromethyl)pyrimidine-2,4-diamine]
[2]; FIG. 9 legend, one each for 150 and 225 mg QD 28-day cohort
  presyncope associated with lumbar puncture: 2 subjects
[2]; [10]
  changes in safety laboratory, vital signs, ECG, neurological examination, PFT or C-SSRS results: No clinically significant changes
  deaths, other SAEs, AESIs or TEAEs leading to study drug discontinuation: No deaths, other SAEs (serious adverse events), AESIs (adverse events of special interests), or treatment-emergent adverse events (TEAEs) leading to study drug discontinuation were reported
  subjects who experienced a severe TEAE: no subjects
  subjects who experienced ≥1 TEAE: 56 (86.2%) subjects (%)
  subjects who experienced ≥1 mild TEAE: 55 (84.6%) subjects (%)
  subjects who experienced ≥1 moderate TEAE: 9 (13.8%) subjects (%)
[2]; Part B, healthy subjects, multiple doses up to 300 mg QD for 10 days
  tolerability: generally well tolerated
[2]; [11]
  changes in safety laboratory, vital sign, ECG, neurological examination, PFT or C-SSRS results: No other clinically significant changes
  deaths, other SAEs or AESIs: No deaths, other SAEs, or AESIs were reported
  subjects who experienced a moderate or severe TEAE: no subjects
  subjects who experienced ≥1 TEAE: 10 (77%) subjects (%)
  subjects who experienced ≥1 mild TEAE: 10 (77%) subjects (%)
  tolerability: generally well tolerated
[2]; Part E, Cohorts E1 and E2, healthy subjects, 150 and 250 mg BID for 14 days
  tolerability: generally well tolerated
[2]; Part E, healthy subjects, 250 mg BID for 14 days
  subjects with moderate TEAEs: 2 subjects
[2]; [12]
  SAEs or AESIs: No SAEs or AESIs were reported
  changes in vital sign, ECG, telemetry, safety laboratory (including liver and renal function testing), PFT, neurological examination or C-SSRS results: No clinically significant changes
  subjects who experienced 1 TEAE: 25 (100.0%) subjects (%)
[2]; Part E, healthy subjects, one at 250 mg BID, one at 400 mg
  study-drug related discontinuations: Two study-drug related discontinuations
[3]; [13]
  SAEs or AESIs: No SAEs or AESIs were reported
  tolerability: generally well tolerated
[3]; [14]
  changes from baseline or trends in safety laboratory (including liver and renal function testing), ECG, neurological assessment, vital sign, PFT or C-SSRS results: No other clinically significant individual changes from baseline or notable trends
  subjects who experienced ≥1 TEAE: 23 (88.5%) subjects (%)
  subjects with moderate TEAEs: 5 (19%) subjects (%)
[3]; subjects with PD, 80 mg QD and 300 mg QD, resolved while on study drug
  additional subjects with TEAEs of mild orthostatic hypotension / mild hypotension plus orthostatic hypotension: Two additional subjects
[3]; subjects with PD, hypotension (130 mg QD), headache (300 mg QD), both considered not related to study drug
  subjects with severe TEAEs: Two subjects
[4]; HVs and patients with PD
  most common TEAE: headache
[4]; HVs and patients with PD, up to 28 days
  changes in pulmonary or renal function: no clinically meaningful changes
[4]; broad range of doses, HVs and patients with PD, up to 28 days
  tolerability: generally well tolerated
[4]; healthy subjects and subjects with PD, up to 28 days of exposure
  changes in potential LRRK2 on-target renal or pulmonary function: no apparent changes
[4]; over 200 subjects, doses up to 400 mg BID for 14 days in healthy volunteers or 225 mg for 28 days
  safety and tolerability: safe and generally well tolerated
[5]; HVs and patients with PD, at doses generally well tolerated
  target and pathway engagement: robust target engagement and pathway engagement; also recorded: Robust target and pathway engagement
[5]; Phase 1b patients with PD, trough (predose), steady state (Day 28), all dose levels studied
  reduction of pS935 in whole blood: robust reduction
[5]; whole blood, trough (predose) at steady state (Day 10 Cohort B, Day 28 Cohort D, Day 14 Cohort E), highest dose
  reduction in pS935 compared with baseline: ≥ 80%
[5]; whole blood, trough (predose) at steady state, lowest clinically relevant dose
  reduction in pS935 compared with baseline: ≥ 50%
[5]; whole blood, about 70 to 800 mg/day, stated as an aspect of the method
  pS935 reduced by at least: 41-97%
[6]; PBMC, about 70 to 800 mg/day, stated as an aspect of the method
  pRab10 reduced by at least: 44-97%
[6]; Phase 1 HVs, trough (predose), steady state (Day 10 Cohort B, Day 28 Cohort D, Day 14 Cohort E), highest dose
  reduction of phosphorylation of Rab10 (pRab10) in PBMCs: ≥ 70%
[6]; Phase 1b patients with PD, trough (predose), steady state, all doses
  pRab10 in PBMCs: reduced
[7]
  lysosomal lipid BMP 22:6 in urine: dose-dependent reduction
[8]
  CSF penetration based on the CSF/unbound plasma ratio: high CSF penetration
[9]
  subjects with severe TEAEs: two subjects
